Assay results taken from patent US11325899B2, “Benzofurane and benzothiophene derivatives as PGE2 receptor modulators” (IDORSIA PHARMACEUTICALS LTD, priority 2017, dated 2022).

Key:
[1] = biological target: T1, PTGER2 (EP2) (Homo sapiens, UniProt P43116); experiment: hEP2 b-arrestin assay (PathHunter HEK 293 PTGER2 b-arrestin cells); format: cell-based; details: antagonistic activity, beta-arrestin assay; read-out: hEP2 b-arr IC50
T1 construct: host or cells: HEK 293 (PathHunter PTGER2 b-arrestin cell line)
T1 sequence (P43116 whole entry): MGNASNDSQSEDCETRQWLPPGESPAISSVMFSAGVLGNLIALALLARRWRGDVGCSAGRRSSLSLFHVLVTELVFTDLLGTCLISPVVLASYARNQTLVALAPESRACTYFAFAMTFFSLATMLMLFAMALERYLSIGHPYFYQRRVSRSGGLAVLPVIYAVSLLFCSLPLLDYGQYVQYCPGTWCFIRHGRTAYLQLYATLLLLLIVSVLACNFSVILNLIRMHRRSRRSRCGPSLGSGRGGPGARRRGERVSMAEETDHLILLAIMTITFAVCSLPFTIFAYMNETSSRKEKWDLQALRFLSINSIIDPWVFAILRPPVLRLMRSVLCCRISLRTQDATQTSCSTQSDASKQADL
Protocol: (§1) The antagonistic activities of the compounds of formula (I) on the EP2 and EP4 receptors are determined in accordance with the following experimental method.
(§2) The assay is using the PathHunter™ HEK 293 PTGER2 and PTGER4 b-arrestin cell lines from DiscoverX. The system is based on the Enzyme Fragment Complementation Technology. Two complementing fragments of the b-galactosidase enzyme are expressed within stably transfected cells. The larger portion of b-gal, termed EA for Enzyme Acceptor, is fused to the C-terminus of b-arrestin 2. The smaller fragment, termed ProLink™ tag, is fused to PTGER2 (EP2) or PTRGER4 (EP4) at the C-terminus. Upon activation, b-arrestin is recruited which forces the interaction of ProLink and EA, allowing complementation of the two fragments of b-gal and the formation of a functional enzyme which is capable of hydrolysing the substrate and generating a chemiluminescent signal.
(§3) The HEK 293 PTGER2 b-arrestin cells (DiscoverX 93-021-4C1) are detached from culture dishes with a cell dissociation buffer (Invitrogen, 13151-014), and collected in growing medium (GM: DMEM+Glutamax-I (Invitrogen 32430)/10% FCS, 1% Penicilin/streptomycin). 5000 cells per well of a 384 well plate (white with white bottom Greiner 781080) are seeded in 20 ul per well of GM. Plate is incubated at 37° C., 5% C02 for 24 hours.
(§4) Stock solutions of test compounds are made at a concentration of 10 mM in DMSO, and serially diluted in DMSO to concentrations required for inhibition dose response curves (tested concentration range 10 μM-2 nM or 1 μM-0.2 nM).
PGE2 (Cayman 14010, stock solution: 10 mM in DMSO) is used as agonist at 5 μM final concentration, corresponding to EC80.
Five microliters of diluted compounds are transferred into the assay plate. Plate is pre-incubated 15 minutes at 37° C. Then five microliters of PGE2 (final conc. 5 μM) are transferred into the assay plate. Plate is incubated 120 minutes at 37° C.
(§5) PathHunter Glo Detection Kit components are thawed and mix according to manufacturer's instructions: 1 part Galacton Star Substrate with 5 parts Emerald II™ Solution, and 19 parts of PathHunter Cell Assay Buffer, respectively. Twelve μl of reagent are transferred to the assay plate and incubate for 1 hour at room temperature in the dark. Luminescence counts are read on a BMG Fluostar Optima reader according to manufacturer's instructions.
(§6) For each compound concentration calculate of the percentage of activity compared to DMSO control value as average±STDEV. (each concentration is measured in duplicate)
(§7) IC50 values and curves are generated with XLfit software (IDBS) using Dose-Response One Site model 203. When compounds were measured multiple times, mean values are given.

[2] = biological target: T2, PTGER4 (EP4) (Homo sapiens, UniProt P35408); experiment: hEP4 b-arrestin assay (PathHunter HEK 293 PTGER4 b-arrestin cells); format: cell-based; details: antagonistic activity, beta-arrestin assay; read-out: hEP4 b-arr IC50
T2 construct: host or cells: HEK 293 (PathHunter PTGER4 b-arrestin cell line)
T2 sequence (P35408 whole entry): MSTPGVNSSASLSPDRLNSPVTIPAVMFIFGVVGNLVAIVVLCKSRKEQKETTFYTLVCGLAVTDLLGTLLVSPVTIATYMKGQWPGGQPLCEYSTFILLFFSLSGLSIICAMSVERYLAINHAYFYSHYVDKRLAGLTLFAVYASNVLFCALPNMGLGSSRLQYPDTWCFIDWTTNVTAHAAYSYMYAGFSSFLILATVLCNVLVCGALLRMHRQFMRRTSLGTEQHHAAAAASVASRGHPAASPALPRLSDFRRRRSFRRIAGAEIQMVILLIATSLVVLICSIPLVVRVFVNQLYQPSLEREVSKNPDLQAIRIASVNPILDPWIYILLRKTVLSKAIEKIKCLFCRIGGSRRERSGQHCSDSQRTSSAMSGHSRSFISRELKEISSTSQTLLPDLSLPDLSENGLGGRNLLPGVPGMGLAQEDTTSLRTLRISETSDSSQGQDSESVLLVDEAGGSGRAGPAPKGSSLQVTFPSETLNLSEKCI
Protocol: as §1, §2
as §3, with “PTGER4” for “PTGER2”, “93-030-4C1)” for “93-021-4C1)”
as §4
PGE2 (Cayman 14010, stock solution: 100 uM in DMSO) is used as agonist at 20 nM final concentration, corresponding to EC80.
Five microliters of diluted compounds are transferred into the assay plate. Plate is pre-incubated 15 minutes at 37° C. Then five microliters of PGE2 (final conc. 20 nM) are transferred into the assay plate. Plate is incubated 120 minutes at 37° C.
as §5, §6, §7

Row | Compound | IC50 [1] [nM] | IC50 [2] [nM]
1 | (4-{6-[2-(2-Cyano-benzo[b]thiophen-3-yl)-ethylamino]-pyrimidin-4-yl}-2-ethoxy-phenyl)-acetic acid [Example 175] | 89 | 492
2 | CCOc1cc(-c2cc(NCCc3c(C)sc4c(C)cc(F)cc34)ncn2)ccc1NC=O [Example 191, N-(2-Ethoxy-4-{6-[2-(5-fluoro-2,7-dimethyl-benzo[b]thiophen-3-yl)-ethylamino]-pyrimidin-4-yl}-phenyl)-formamide] | 45 | 135
3 | Cc1sc2c(C)cc(F)cc2c1CCNc1cc(-c2ccc(-c3c(O)c(=O)c3=O)cc2)ncn1 [Example 180, 3-(4-{6-[2-(5-Fluoro-2,7-dimethyl-benzo[b]thiophen-3-yl)-ethylamino]-pyrimidin-4-yl}-phenyl)-4-hydroxy-cyclobut-3-ene-1,2-dione] | 20 | 120
4 | CCn1cc(-c2cc(NCCc3c(C)sc4c(C)cc(F)cc34)ncn2)cc1C(=O)O [Example 200, 1-Ethyl-4-{6-[2-(5-fluoro-2,7-dimethyl-benzo[b]thiophen-3-yl)-ethylamino]-pyrimidin-4-yl}-1H-pyrrole-2-carboxylic acid] | 63 | 550
5 | COc1cc(-c2cc(NCCc3c(C)sc4c(C)cc(F)cc34)ncn2)ccc1-c1cc(O)no1 [Example 203, 5-(4-{6-[2-(5-Fluoro-2,7-dimethyl-benzo[b]thiophen-3-yl)-ethylamino]-pyrimidin-4-yl}-2-methoxy-phenyl)-isoxazol-3-ol [tautomeric form: 5-(4-(6-((2-(5-fluoro-2,7-dimethylbenzo[b]thiophen-3-yl)ethyl)amino)pyrimidin-4-yl)-2-methoxyphenyl)isoxazol-3(2H)-one]] | 16 | 239
6 | CCOc1cc(-c2cc(NCCc3c(C)sc4c(C)cc(F)cc34)ncn2)[nH]c1C(=O)O [Example 199, 3-Ethoxy-5-{6-[2-(5-fluoro-2,7-dimethyl-benzo[b]thiophen-3-yl)-ethylamino]-pyrimidin-4-yl}-1 H-pyrrole-2-carboxylic acid] | 5 | 363
7 | CCc1cc(-c2cc(NCCc3c(C)sc4c(C)cc(F)cc34)ncn2)sc1CC(=O)O [Example 197, (3-Ethyl-5-{6-[2-(5-fluoro-2,7-dimethyl-benzo[b]thiophen-3-yl)-ethylamino]-pyrimidin-4-yl}-thiophen-2-yl)-acetic acid] | 85 | 146
8 | CCCc1cc(-c2cc(NCCc3c(C)sc4c(C)cc(F)cc34)ncn2)ccc1C(=O)NCCOC [Example 208, 4-{6-[2-(5-Fluoro-2,7-dimethyl-benzo[b]thiophen-3-yl)-ethylamino]-pyrimidin-4-yl}-N-(2-methoxy-ethyl)-2-propyl-benzamide] | 62 | 837
9 | CCOc1cc(-c2cc(NCCc3c(C)sc4c(C)cc(F)cc34)ncn2)ccc1C(=O)NCCO [Example 211, 2-Ethoxy-4-{6-[2-(5-fluoro-2,7-dimethyl-benzo[b]thiophen-3-yl)-ethylamino]-pyrimidin-4-yl}-N-(2-hydroxy-ethyl)-benzamide] | 30 | 367
10 | COc1cc(-c2cc(NCCc3c(C#N)sc4ccccc34)ncn2)ccc1CC(=O)O [Example 174, (4-{6-[2-(2-Cyano-benzo[b]thiophen-3-yl)-ethylamino]-pyrimidin-4-yl}-2-methoxy-phenyl)-acetic acid] | 135 | 723
11 | CSc1cc(-c2cc(NCCc3c(C#N)sc4ccccc34)ncn2)ccc1C(=O)O [Example 173, 4-{6-[2-(2-Cyano-benzo[b]thiophen-3-yl)-ethylamino]-pyrimidin-4-yl}-2-methylsulfanyl-benzoic acid] | 8 | 757
12 | Cc1cc(-c2cc(NCCc3c(C)sc4c(C)cc(F)cc34)ncn2)cc(Cl)c1CC(=O)O [Example 198, (2-Chloro-4-{6-[2-(5-fluoro-2,7-dimethyl-benzo[b]thiophen-3-yl)-ethylamino]-pyrimidin-4-yl}-6-methyl-phenyl)-acetic acid] | 77 | 175
13 | CCOc1cc(-c2cc(NCCc3c(C)sc4c(C)cc(F)cc34)ncn2)c(F)cc1CC(=O)O [Example 217, (2-Ethoxy-5-fluoro-4-{6-[2-(5-fluoro-2,7-dimethyl-benzo[b]thiophen-3-yl)-ethylamino]-pyrimidin-4-yl}-phenyl)-acetic acid] | 126 | 847
14 | Cc1sc2c(C)cc(F)cc2c1CCNc1cc(-c2cc3cccc(C(=O)O)c3[nH]2)ncn1 [Example 221, 2-{6-[2-(5-Fluoro-2,7-dimethyl-benzo[b]thiophen-3-yl)-ethylamino]-pyrimidin-4-yl}-1H-indole-7-carboxylic acid] | 24 | 908
15 | CCOc1cc(-c2cc(NCCc3c(C)sc4c(C)cc(F)cc34)ncn2)ccc1C1(C(=O)O)CC1 [Example 215, 1-(2-Ethoxy-4-{6-[2-(5-fluoro-2,7-dimethyl-benzo[b]thiophen-3-yl)-ethylamino]-pyrimidin-4-yl}-phenyl)-cyclopropanecarboxylic acid] | 143 | 151
16 | Cc1sc2c(C)cc(F)cc2c1CCNc1cc(-c2cnn(C(C)(C)C(=O)O)c2)ncn1 [Example 214, 2-(4-{6-[2-(5-Fluoro-2,7-dimethyl-benzo[b]thiophen-3-yl)-ethylamino]-pyrimidin-4-yl}-pyrazol-1-yl)-2-methyl-propionic acid] | 237 | 388
17 | CCOc1cc(-c2cc(NCCc3c(C)sc4c(C)cc(F)cc34)ncn2)ccc1C(=O)NC [Example 212, 2-Ethoxy-4-{6-[2-(5-fluoro-2,7-dimethyl-benzo[b]thiophen-3-yl)-ethylamino]-pyrimidin-4-yl}-N-methyl-benzamide] | 11 | 667
18 | CCCc1cc(-c2cc(NCCc3c(C)sc4c(C)cc(F)cc34)ncn2)ccc1C(=O)NCC(C)(C)O [Example 207, 4-{6-[2-(5-Fluoro-2,7-dimethyl-benzo[b]thiophen-3-yl)-ethylamino]-pyrimidin-4-yl}-N-(2-hydroxy-2-methyl-propyl)-2-propyl-benzamide] | 26 | 335
19 | Cc1sc2c(C)cc(F)cc2c1CCNc1cc(-c2cc(OC(F)F)c(CC(=O)O)s2)ncn1 [Example 220, (3-Difluoromethoxy-5-{6-[2-(5-fluoro-2,7-dimethyl-benzo[b]thiophen-3-yl)-ethylamino]-pyrimidin-4-yl}-thiophen-2-yl)-acetic acid] | 44 | 407
20 | CCCn1cc(-c2cc(NCCc3c(C)sc4c(C)cc(F)cc34)ncn2)cc1C(=O)O [Example 201, 4-{6-[2-(5-Fluoro-2,7-dimethyl-benzo[b]thiophen-3-yl)-ethylamino]-pyrimidin-4-yl}-1-propyl-1H-pyrrole-2-carboxylic acid] | 34 | 351
21 | CCCc1cc(-c2cc(NCCc3c(C)sc4c(C)cc(F)cc34)ncn2)ccc1C(=O)NC [Example 210, 4-{6-[2-(5-Fluoro-2,7-dimethyl-benzo[b]thiophen-3-yl)-ethylamino]-pyrimidin-4-yl}-N-methyl-2-propyl-benzamide] | 19 | 469
22 | Cc1sc2c(C)cc(F)cc2c1CCNc1cc(-c2ccc(CC(=O)O)c(OC(F)(F)F)c2)ncn1 [Example 187, (4-{6-[2-(5-Fluoro-2,7-dimethyl-benzo[b]thiophen-3-yl)-ethylamino]-pyrimidin-4-yl}-2-trifluoromethoxy-phenyl)-acetic acid] | 79 | 425
